Results: patent US10961228B2, “JAK1 selective inhibitors” (AstraZeneca AB, priority 2017, dated 2021)

Assays:
[1] = molecular target: recombinant JAK1 (amino acids 866-1154) (Homo sapiens (Human), UniProt P23458); assay: Enzyme inhibition studies, JAK1 (5 mM ATP, Caliper); type: biochemical
Experimental: (§1) JAK enzyme was expressed as N-terminal GST fusion in insect cells and purified by glutathione-affinity and size-exclusion chromatographies. Enzymes were assayed at their approximated high end of physiological ATP concentration of 5 mM, in the presence of inhibitor dosed at 30, 3, 0.3, 0.03, 0.003 and 0 μM final test concentrations.
(§2) Phosphorylated and unphosphotylated peptides were separated and quantified by a Caliper LC3000 system (Caliper Life Sciences, MA) for calculating percent inhibition.

[2] = molecular target: recombinant JAK3 (amino acids 781-1124) (Homo sapiens (Human), UniProt P52333); assay: Enzyme inhibition studies, JAK3 (5 mM ATP, Caliper); type: biochemical
Sequence of recombinant JAK3 (amino acids 781-1124) (P52333 781-1124): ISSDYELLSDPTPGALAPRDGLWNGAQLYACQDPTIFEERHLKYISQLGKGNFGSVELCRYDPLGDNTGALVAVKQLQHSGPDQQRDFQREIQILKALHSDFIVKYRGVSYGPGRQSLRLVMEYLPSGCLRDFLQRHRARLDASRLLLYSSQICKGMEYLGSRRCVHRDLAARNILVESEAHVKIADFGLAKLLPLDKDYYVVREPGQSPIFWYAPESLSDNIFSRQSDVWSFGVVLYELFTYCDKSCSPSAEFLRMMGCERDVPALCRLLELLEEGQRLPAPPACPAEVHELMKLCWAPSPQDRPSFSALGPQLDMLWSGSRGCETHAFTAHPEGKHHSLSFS
Experimental: as §1, §2

[3] = test system: IL-13 induced STAT6 promotor luciferase reporter in U937 monocytes (U937-STAT6-Luc); assay: Cellular interleukin (IL-13) induced JAK-STAT6-luciferase assay (pSTAT6); type: cell-based; settings: Homo sapiens, U-937; IL-13 induced STAT6-luciferase, U937-STAT6-Luc cells
Experimental: Cells were harvested by centrifugation at 250 g for 5 min and resuspended in Assay buffer (20 mM HEPES, 1×HBSS and 0.1% BSA) to 1000 cells pr μl. For stimulation of cells was used interleukin (IL-13) also dissolved in Assay buffer to […]. […] Test and control compounds were applied to assay plates (low vol white 384-well plates) in serial dilutions from 10 mM to 0.5 nM at 5 nl pr well in DMSO.
To each well was added 4 μl cells and 4 μl interleukin (IL-13) and the plates were sealed and incubated at 37° C. for 4½ h and then at room temperature for 30 min. The assay was developed by addition of 4 μl pr well of SteadyGlo (Promega) and after […] the plates were read at an Envision plate reader with luminescence filter.

[4] = molecular target: recombinant JAK2 (amino acids 831-1132) (Homo sapiens (Human), UniProt O60674); assay: Enzyme inhibition studies, JAK2 (5 mM ATP, Caliper); type: biochemical
Sequence of recombinant JAK2 (amino acids 831-1132) (O60674 831-1132): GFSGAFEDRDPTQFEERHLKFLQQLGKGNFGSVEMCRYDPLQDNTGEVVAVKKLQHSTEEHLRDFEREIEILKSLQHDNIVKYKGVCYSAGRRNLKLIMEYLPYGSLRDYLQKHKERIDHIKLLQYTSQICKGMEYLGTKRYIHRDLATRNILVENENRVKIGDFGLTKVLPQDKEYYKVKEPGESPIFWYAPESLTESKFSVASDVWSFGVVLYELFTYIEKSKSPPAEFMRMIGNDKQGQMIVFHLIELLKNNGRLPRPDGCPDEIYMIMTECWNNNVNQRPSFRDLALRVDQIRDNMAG
Experimental: as §1, §2

Sequence of recombinant JAK1 (amino acids 866-1154) (P23458 866-1154): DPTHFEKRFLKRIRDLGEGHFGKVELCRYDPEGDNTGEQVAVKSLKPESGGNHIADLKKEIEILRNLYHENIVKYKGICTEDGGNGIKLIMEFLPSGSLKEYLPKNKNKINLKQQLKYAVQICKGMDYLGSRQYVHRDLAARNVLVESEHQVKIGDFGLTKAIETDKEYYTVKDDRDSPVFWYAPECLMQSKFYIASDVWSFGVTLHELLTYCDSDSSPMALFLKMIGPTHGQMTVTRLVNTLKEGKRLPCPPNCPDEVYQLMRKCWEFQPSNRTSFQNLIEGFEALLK

| SMILES | IC50 [1] [nM] | IC50 [2] [nM] | IC50 [3] [nM] | IC50 [4] [nM] |
| --- | --- | --- | --- | --- |
| Cc1cnc(Nc2cccc(S(C)(=O)=O)c2F)nc1-c1c[nH]c2c(NC(=O)[C@@H](C)N3C[C@H](C)N(C)[C@@H](C)C3)cccc12 [Example 7, (R)-N-(3-(2-((2-fluoro-3-(methylsulfonyl)phenyl)amino)-5-methylpyrimidin-4-yl)-1H-indol-7-yl)-2-((3S,5S)-3,4,5-trimethylpiperazin-1-yl)propanamide] | 6.6 | > 30000 | 57 | 14500 |
| C[C@H](C(=O)Nc1cccc2c(-c3nc(Nc4cccc(S(C)(=O)=O)c4F)ncc3F)c[nH]c12)N1C[C@H](C)N(C)[C@@H](C)C1 [Example 8, (R)-N-(3-(5-fluoro-2-((2-fluoro-3-(methylsulfonyl)phenyl)amino)pyrimidin-4-yl)-1H-indol-7-yl)-2-((3S,5S)-3,4,5-trimethylpiperazin-1-yl)propanamide] | 24.5 | > 30000 | 78 | > 30000 |
| Cc1cnc(Nc2cccc(S(C)(=O)=O)c2F)nc1-c1c[nH]c2c(NC(=O)[C@H](C)N3C[C@H](C)N[C@@H](C)C3)cccc12 [Example 10, (S)-2-((3S,5S)-3,5-dimethylpiperazin-1-yl)-N-(3-(2-((2-fluoro-3-(methylsulfonyl)phenyl)amino)-5-methylpyrimidin-4-yl)-1H-indol-7-yl)propanamide] | 39.8 | > 30000 | 352 | 21000 |
| C[C@H](C(=O)Nc1cccc2c(-c3nc(Nc4cccc(S(C)(=O)=O)c4F)ncc3F)c[nH]c12)N1C[C@H](C)N[C@@H](C)C1 [Example 11, (R)-2-((3S,5S)-3,5-dimethylpiperazin-1-yl)-N-(3-(5-fluoro-2-((2-fluoro-3-(methylsulfonyl)phenyl)amino)pyrimidin-4-yl)-1H-indol-7-yl)propanamide] | 13.1 | > 30000 | 85 | 11100 |
| C[C@H]1CN([C@@H](C)C(=O)Nc2cccc3c(-c4nc(Nc5cccc(S(C)(=O)=O)c5F)ncc4F)c[nH]c23)C[C@H](C)N1 [Example 12, (S)-2-((3S,5S)-3,5-dimethylpiperazin-1-yl)-N-(3-(5-fluoro-2-((2-fluoro-3-(methylsulfonyl)phenyl)amino)pyrimidin-4-yl)-1H-indol-7-yl)propanamide] | 1130 | > 30000 | > 4950 | > 30000 |
| CC[C@@H](C(=O)Nc1cccc2c(-c3nc(Nc4cccc(S(C)(=O)=O)c4F)ncc3C)c[nH]c12)N1CCN(C)CC1 [Example 13, (S)-N-(3-(2-((2-fluoro-3-(methylsulfonyl)phenyl)amino)-5-methylpyrimidin-4-yl)-1H-indol-7-yl)-2-(4-methylpiperazin-1-yl)butanamide] | 22.4 | > 30000 | 97 | 26100 |
| CC[C@H](C(=O)Nc1cccc2c(-c3nc(Nc4cccc(S(C)(=O)=O)c4F)ncc3C)c[nH]c12)N1CCN(C)CC1 [Example 14, (R)-N-(3-(2-((2-fluoro-3-(methylsulfonyl)phenyl)amino)-5-methylpyrimidin-4-yl)-1H-indol-7-yl)-2-(4-methylpiperazin-1-yl)butanamide] | < 3 | > 30000 | 21 | 2430 |
| CC[C@H](C(=O)Nc1cccc2c(-c3nc(Nc4cccc(S(C)(=O)=O)c4F)ncc3F)c[nH]c12)N1CCCN(C)CC1 [Example 17] | 3.6 | > 30000 | 90 | 4860 |
| CC[C@@H](C(=O)Nc1cccc2c(-c3nc(Nc4cccc(S(C)(=O)=O)c4F)ncc3F)c[nH]c12)N1CCCN(C)CC1 [Example 18] | 403 | > 30000 | 1280 | > 30000 |
| CC[C@@H](C(=O)Nc1cccc2c(-c3nc(Nc4cccc(S(C)(=O)=O)c4F)ncc3C)c[nH]c12)N1C[C@H](C)N(C)[C@@H](C)C1 [Example 19, (S)-N-(3-(2-((2-fluoro-3-(methylsulfonyl)phenyl)amino)-5-methylpyrimidin-4-yl)-1H-indol-7-yl)-2-((3S,5S)-3,4,5-trimethylpiperazin-1-yl)butanamide] | 143 | > 30000 | 423 | > 30000 |
| COC[C@@H](C(=O)Nc1cccc2c(-c3nc(Nc4cccc(S(C)(=O)=O)c4F)ncc3C)c[nH]c12)N1C[C@H](C)N(C)[C@@H](C)C1 [Example 21, (S)-N-(3-(2-((2-fluoro-3-(methylsulfonyl)phenyl)amino)-5-methylpyrimidin-4-yl)-1H-indol-7-yl)-3-methoxy-2-((3S,5S)-3,4,5-trimethylpiperazin-1-yl)propanamide] | 986 | > 30000 | 2230 | > 30000 |
| COC[C@H](C(=O)Nc1cccc2c(-c3nc(Nc4cccc(S(C)(=O)=O)c4F)ncc3C)c[nH]c12)N1C[C@H](C)N(C)[C@@H](C)C1 [Example 22, (R)-N-(3-(2-((2-fluoro-3-(methylsulfonyl)phenyl)amino)-5-methylpyrimidin-4-yl)-1H-indol-7-yl)-3-methoxy-2-((3S,5S)-3,4,5-trimethylpiperazin-1-yl)propanamide] | < 3 | > 30000 | 29 | 2560 |
| CC[C@@H](C(=O)Nc1cccc2c(-c3nc(Nc4cccc(S(C)(=O)=O)c4F)ncc3F)c[nH]c12)N1C[C@H](C)N(C)[C@@H](C)C1 [Example 23, (S)-N-(3-(5-fluoro-2-(2-fluoro-3-(methylsulfonyl)phenylamino)pyrimidin-4-yl)-1H-indol-7-yl)-2-((3S,5S)-3,4,5-trimethylpiperazin-1-yl)butanamide] | 183 | > 30000 | 866 | > 30000 |
| Cc1cnc(Nc2cccc(S(C)(=O)=O)c2F)nc1-c1c[nH]c2c(NC(=O)[C@@H](C)N3CCNCC3)cccc12 [Example 24, (R)-N-(3-(2-((2-fluoro-3-(methylsulfonyl)phenyl)amino)-5-methylpyrimidin-4-yl)-1H-indol-7-yl)-2-(piperazin-1-yl)propanamide] | 4.2 | > 30000 | 42 | 3460 |
| Cc1cnc(Nc2cccc(S(C)(=O)=O)c2F)nc1-c1c[nH]c2c(NC(=O)[C@H](C)N3CCNCC3)cccc12 [Example 25, (S)-N-(3-(2-((2-fluoro-3-(methylsulfonyl)phenyl)amino)-5-methylpyrimidin-4-yl)-1H-indol-7-yl)-2-(piperazin-1-yl)propanamide] | 22.8 | > 30000 | 63 | 6590 |
| CC[C@H](C(=O)Nc1cccc2c(-c3nc(Nc4cccc(S(C)(=O)=O)c4F)ncc3C)c[nH]c12)N1C[C@@H](C)N[C@H](C)C1 [Example 26, (R)-2-((3R,5R)-3,5-dimethylpiperazin-1-yl)-N-(3-(2-((2-fluoro-3-(methylsulfonyl)phenyl)amino)-5-methylpyrimidin-4-yl)-1H-indol-7-yl)butanamide] | < 3 | > 30000 | 38 | 456 |
